For orientation: bioavailability means dose-corrected exposure relative to a reference, in per cent. The Tmax is the time at which the peak concentration occurs. What is called Cmax is the peak of the concentration-time curve. Broadly, the clearance is a measure of how efficiently the substance is removed, as volume per time.

Read-outs that look alike come from different tables or passages of the source.

A short description of the data set: Single dose bioavailability of L-dC in the cynomologus monkey. The format is in vivo, cynomolgus monkey. The note with it: for AUC(0-t) / half-life: n=3, mean; for AUC(0-t): read-out: AUClast of L-dC; for half-life: in vivo. As for the experimental part:
The pharmacokinetics of L-dC following IV and oral administration of L-dC to cynomolgus monkeys was determined.

Where [1] appears, read: cynomolgus monkey, blood, L-dC 10 mg/kg single IV dose.
Setting [2] is: cynomolgus monkey, blood, L-dC 10 mg/kg single oral dose.

Consider `Nc1ccn([C@@H]2CC(O)[C@H](CO)O2)c(=O)n1` (stereo partly drawn) [L-dC, 2′-Deoxy-β-L-cytidine], for which, under “L-dC 10 mg/kg IV”, the “L-dC as share of the dose recovered in the urine” value worked out at 94%, the “administered dose recovered in urine within 2 hours” value was found to be 71% and the “renal clearance as share of total L-dC clearance” value is listed as 87%. Besides, for the setting “L-dC 10 mg/kg oral”, the “L-dC as share of drug excreted in the urine” value is given as approximately 69%, the “administered oral dose recovered in urine after 72 hours” value was found to be 15.5% and the “administered oral dose recovered in urine within 12 hours” value is on record as “Approximately 8.5%”. Under “cynomolgus monkey, blood and urine, L-dC 10 mg/kg single IV dose, mean, read-out: renal clearance (CLR) (converted)”, the CL renal is 7.67 mL/min/kg. In addition, the bioavailability (cynomolgus monkey, blood, L-dC 10 mg/kg oral vs IV, mean, read-out: oral bioavailability (F)) is 16.4%. Moreover, under setting [1], the Tmax was 0 h and the AUC(0-t) was determined as 81.1 µM·h. Under “cynomolgus monkey, blood, L-dC 10 mg/kg single IV dose, mean, at 15 minutes post-dose”, this compound displayed a Cmax of 95.7 µM. Moreover, the Vd (cynomolgus monkey, blood, L-dC 10 mg/kg single IV dose, mean, read-out: apparent volume of distribution (Vd)) turned out to be 1.22 L/kg. Moreover, the clearance (cynomolgus monkey, blood, L-dC 10 mg/kg single IV dose, mean, read-out: total clearance (CL) (converted)) is 8.83 mL/min/kg. Also, under setting [2], the peak concentration (Cmax) was determined as 3.38 µM and the AUC(0-t) is 13.7 µM·h. Besides, the Tmax (cynomolgus monkey, blood, L-dC 10 mg/kg single oral dose, mean) stood at 2.33 h. Further, under “cynomolgus monkey, L-dC 10 mg/kg single IV dose, read-out: t1/2 of L-dC (converted)”, the half-life was 1.59 h. Where the note is “cynomolgus monkey, L-dC 10 mg/kg single oral dose, read-out: terminal t1/2 of L-dC (converted)”, the half-life was 2.95 h.
